Consider 31 compounds from patent US3966773A, “2-Substituted-3,4-epoxycyclopentan-1-ones, and 2-substituted-3,4-epoxycyclopentan-1-ols” (American Cyanamid Company, priority 1975, dated 1976).

What is called minimal effective dose is the lowest level tested that produced the effect sought. A high value points to weaker potency. One may read the ED50 as the midpoint of the dose-response relation.

In one assay the test system is diastolic blood pressure. Nature of the assay: Hypotensive activity in anesthetized rats. It is filed as in vivo, rat (male Wistar strain). The following applies: Rattus norvegicus; intravenous; dose producing a decrease of about 10 mm. in diastolic blood pressure. How it is done: This procedure is a modification of the technique described by Pike et al., Prostaglandins, Nobel Symposium 2, Stockholm, June, 1966; p. 165.
Male Wistar strain rats (Royal Hart Farms) averaging approximately 250 grams in weight were fastened to rat boards in a supine position by means of canvas vests and limb ties. The femoral area was infiltrated subcutaneously with lidocaine and the iliac artery and vein were exposed and cannulated. Arterial blood pressure (systolic/diastolic) was recorded using a Statham P23 Db pressure, the animals were anethetized before use with pentobarbital, 30 mg./kg. of body weight intravenously, and also were given hexamethoxium bitartrate, 2 mg./kg. of body weight intravenously. The test compounds were prepared by ultrasonic dispersion in a saline-Tween 80 vehicle. A constant intravenous dose volume of 0.5 ml. was administered and test doses ranged from 0.1 to 10.0 mg./kg. of body weight. Increasing or decreasing doses were selected depending on the dose response obtained. In Table 2B below are set forth the minimal doses required to produce a decrease of about 10 mm. in diastolic blood pressure for typical compounds of the present invention.

The subject of assay [1] is bronchospasms elicited by acetylcholine. Nature of the assay: Bronchodilator activity (Konzett assay), acetylcholine as spasmogenic agent. To be noted: Cavia porcellus, read-out: Bronchodilator Activity ED50, spasmogenic agent acetylcholine; three logarithmic cumulative intravenous doses; read-out: Bronchodilator Activity ED50, spasmogenic agent choline. It is filed as in vivo, guinea pig. Here is the method:
(§1) Bronchodilator activity was determined in guinea pigs against bronchospasms elicited by intravenous injections of 5-hydroxytryptamine, histamine or acetylcholine by the Konzett procedure. [See J. Lulling, P. Lievens, F. El Sayed and J. Prignot, Arzeimittel-Forschung, 18 995 (1968).]
(§2) In the Table which follows bronchodilater activity for representative compounds of this invention against one or more of the three spasmogenic agents is expressed as an ED50 determined from the results obtained with three logarithemic cumulative intravenous doses.

Assay [2] has as its system bronchospasms elicited by 5-hydroxytryptamine. Briefly: Bronchodilator activity (Konzett assay), 5-hydroxytryptamine as spasmogenic agent. The following applies: Cavia porcellus; three logarithmic cumulative intravenous doses. The assay is classed as in vivo, guinea pig. Here is the method: as §1, §2
Assay [3] concerns bronchospasms elicited by histamine. Nature of the assay: Bronchodilator activity (Konzett assay), histamine as spasmogenic agent. The assay is classed as in vivo, guinea pig. To be noted: Cavia porcellus; three logarithmic cumulative intravenous doses. Here is the method: as §1, §2

`CC/C=C\CC(C)(O)/C=C/[C@H]1CCC(=O)[C@@H]1C/C=C\CCCC(=O)O` (stereo partly drawn) [9-oxo-15-hydroxy-15-methyl-5-cis,13-trans,17-cis-prostatrienoic acid] registered a minimal effective dose in the assay with diastolic blood pressure of under 2 mg/kg.

On to `CCCCCC(O)/C=C/[C@H]1CCC(=O)[C@@H]1CCCCCC(C)C(=O)O` (relative stereo) [9-oxo-15-hydroxy-2-methyl-13-trans-prostenoic acid], for which, in the assay on diastolic blood pressure, the minimal effective dose was found to be 2 mg/kg.

`CCCCCC(O)CC[C@H]1CCC(=O)[C@@H]1CCCCCC(CC)C(=O)O` (stereo partly drawn) [2-ethyl-9-oxo-15-hydroxy-prostanoic acid, 9-oxo-15-hydroxy-2-ethyl-prostanoic acid] had a minimal effective dose in the assay with diastolic blood pressure of 0.2 mg/kg.

As for `CCCCCC(O)/C=C/[C@H]1CCC(=O)[C@]1(C)CCCCCCC(=O)O` (relative stereo) [9-oxo-8β-methyl-15-hydroxy-13-trans-prostenoic acid], the minimal effective dose in the assay on diastolic blood pressure stood at 2 mg/kg.

For the compound `CCCCCC(O)/C=C\[C@H]1CCC(=O)[C@@H]1CCCCCCC(=O)O` (relative stereo) [9-oxo-15-hydroxy-13-cis-prostenoic acid, 15-hydroxy-9-oxo-13-cis-prostenoic acid], the median effective dose (ED50) in assay [1] was 0.00032 mg/kg. In the assay with diastolic blood pressure, this compound displayed a minimal effective dose of 2 to 4 mg/kg.

As to `CCCCC[C@@H](O)/C=C/[C@H]1CCCC(=O)[C@@H]1CCCCCCC(=O)O` (relative stereo) [9-oxo-10a-homo-15-epi-hydroxy-13-trans-prostenoic acid], the minimal effective dose in the assay with diastolic blood pressure worked out at 2 mg/kg.

As to `CCCCCC(O)/C=C/[C@H]1CCC(=O)[C@@H]1CCCCOCC(=O)O` (relative stereo) [9-oxo-15-hydroxy-3-oxa-13-trans-prostenoic acid], in the assay with diastolic blood pressure, the minimal effective dose is under 2 mg/kg.

Turning to `CCCCCC(O)/C=C/[C@H]1CCC(=O)[C@@H]1CCCCOCC(=O)OCC` (relative stereo) [Ethyl 9-oxo-15-hydroxy-3-oxa-13-trans-prostenoate], in the assay on diastolic blood pressure, the minimal effective dose is 0.2 mg/kg.

In turn, `CCCCC[C@@H](O)/C=C/[C@H]1CCC(=O)[C@@H]1CCCCOCC(=O)O` (relative stereo) [3-oxa-9-oxo-15-epi-hydroxy-13-trans-prostenoic acid] returned a minimal effective dose in the assay with diastolic blood pressure of 1 to 2 mg/kg.

On to `CCCCCC(O)/C=C/[C@H]1CCC(=O)[C@@H]1CCCCCC(CC)C(=O)O` (stereo partly drawn), for which the 50% effective dose (ED50) in assay [2] worked out at 0.000329 mg/kg; in assay [3], 0.000145 mg/kg; in assay [1], 0.000533 mg/kg. The minimal effective dose in the assay with diastolic blood pressure was under 2 mg/kg.

In the assay on diastolic blood pressure, `CCCCCC(O)/C=C/[C@H]1CCC(=O)[C@@H]1CCCCCCCCC(=O)O` (relative stereo) [9-oxo-15-hydroxy-7a,7b-bishomo-13-trans-prostenoic acid] showed a minimal effective dose of under 8 mg/kg.

For the compound `CCCCC(C)(C)C(O)/C=C/[C@H]1CCC(=O)[C@@H]1CCCCOCC(=O)O` (relative stereo) [9-oxo-15-hydroxy-16,16-dimethyl-3-oxa-13-trans-prostenoic acid], the minimal effective dose in the assay on diastolic blood pressure was under 2 mg/kg.

For the compound `CC/C=C\CC(O)/C=C/[C@H]1CCC(=O)[C@@H]1C/C=C\CCCC(=O)O` (relative stereo) [9-oxo-15-hydroxy-5-cis,13-trans,17-cis-prostatrienoic acid], the minimal effective dose with diastolic blood pressure is under 2 mg/kg.

Consider `CCCCC(C)(C)C(O)/C=C/[C@H]1CCC(=O)[C@@H]1CCCCSCC(=O)O` (relative stereo) [9-oxo-15-hydroxy-16,16-dimethyl-3-thia-13-trans-prostenoic acid], for which, in the assay with diastolic blood pressure, the minimal effective dose is under 2 mg/kg.

Take `CCCCC(CC)C(O)/C=C/[C@H]1CCC(=O)[C@@H]1CCCCCCC(=O)O` (relative stereo) [9-oxo-15-hydroxy-16-ethyl-13-trans-prostenoic acid]: the minimal effective dose in the assay on diastolic blood pressure is under 8 mg/kg.

For `CCCCC[C@@H](O)/C=C/[C@H]1CCC(=O)[C@@H]1CCCCCC(C(=O)O)c1ccccc1` (relative stereo) [2-phenyl-9-oxo-15-epi-hydroxy-13-trans-prostenoic acid], the minimal effective dose with diastolic blood pressure fell in the range of 2 to 8 mg/kg.

Consider `CCCC(C)(C)CC(O)/C=C/[C@H]1CCC(=O)[C@@H]1CCCCCCC(=O)O` (relative stereo) [9-oxo-15-hydroxy-17,17-dimethyl-13-trans-prostenoic acid], for which the minimal effective dose with diastolic blood pressure came to 2 mg/kg.

For `CCCCCC(O)/C=C/[C@H]1CCCC(=O)[C@@H]1CCCCCCC(=O)O` (relative stereo) [9-oxo-15-hydroxy-10a-homo-13-trans-prostenoic acid], the minimal effective dose in the assay on diastolic blood pressure is 2 mg/kg.

Compound `CCCCCC(O)/C=C/[C@H]1CCCC(=O)[C@@H]1CCCCCCC(=O)OCC` (relative stereo) [Ethyl 9-oxo-15-hydroxy-10a-homo-13-trans-prostenoate] showed a minimal effective dose in the assay on diastolic blood pressure of 2 mg/kg.

`CCCCCC(O)/C=C/[C@H]1CCC(=O)[C@@H]1CCCCCC(C(=O)O)c1ccccc1` (relative stereo) [9-oxo-15-hydroxy-2-phenyl-13-trans-prostenoic acid] displayed a minimal effective dose in the assay with diastolic blood pressure of 8 mg/kg.

`CCCCC[C@@H](O)/C=C/[C@H]1CCC(=O)[C@@H]1CCCCSCC(=O)O` (relative stereo) [3-thia-9-oxo-15-epi-hydroxy-13-trans-prostenoic acid] registered a minimal effective dose in the assay on diastolic blood pressure of 2 mg/kg.

As for `CCCCCC(O)/C=C/[C@H]1CCC(=O)[C@@H]1CCCCC(C)(C)CC(=O)O` (relative stereo) [9-oxo-15-hydroxy-3,3-dimethyl-13-trans-prostenoic acid], the minimal effective dose in the assay with diastolic blood pressure is 8 mg/kg.

With `CC/C=C\CC(O)/C=C/[C@H]1CCC(=O)[C@@H]1CCCCCCC(=O)O` (relative stereo) [9-oxo-15-hydroxy-13-trans,17-cis-prostadienoic acid], in the assay with diastolic blood pressure, the minimal effective dose is under 2 mg/kg.

With `CCCC#CC(O)CC[C@H]1CCC(=O)[C@@H]1CCCCCCC(=O)O` (stereo partly drawn) [9-oxo-15-hydroxy-16-prostynoic acid], in assay [1], the ED50 came out at 0.00032 mg/kg. In the assay with diastolic blood pressure, this compound registered a minimal effective dose of 2 mg/kg.

As for `CCCCC[C@@H](O)/C=C/[C@H]1CCC(=O)[C@@H]1CCCCOCC(=O)OCC` (relative stereo) [Ethyl 3-oxa-9-oxo-15-epi-hydroxy-13-trans-prostenoate], the minimal effective dose with diastolic blood pressure was determined as 0.2 mg/kg.

Take `CCCCC[C@@H](O)/C=C/[C@H]1CCC(=O)[C@@H]1CCCCCC(CC)C(=O)O` (relative stereo) [2-ethyl-9-oxo-15-epi-hydroxy-13-trans-prostenoic acid]: the minimal effective dose in the assay with diastolic blood pressure fell in the range of 2 to 4 mg/kg.

Consider `CCCCCC(O)/C=C/[C@H]1CCC(=O)[C@@H]1CCCCSCC(=O)O` (relative stereo) [9-oxo-15-hydroxy-3-thia-13-trans-prostenoic acid], for which the minimal effective dose in the assay with diastolic blood pressure turned out to be 2 mg/kg.

`CCC/C=C/C(O)CC[C@H]1CCC(=O)[C@@H]1CCCCCCC(=O)O` (relative stereo) [9-oxo-15-hydroxy-16-trans-prostenoic acid] displayed a minimal effective dose in the assay on diastolic blood pressure of under 2 mg/kg.

In the assay on diastolic blood pressure, `CCCCC[C@@H](O)/C=C/[C@H]1CCC(=O)[C@@H]1CCCCCC(C)C(=O)O` (relative stereo) [2-methyl-9-oxo-15-epi-hydroxy-13-trans-prostenoic acid] displayed a minimal effective dose of 2 mg/kg.

Consider `CCCCCC(O)/C=C/[C@H]1CCC(=O)[C@@H]1CCCCCC(F)C(=O)O` (relative stereo) [9-oxo-15-hydroxy-2-fluoro-13-trans-prostenoic acid], for which the minimal effective dose with diastolic blood pressure is 8 mg/kg.

As to `CCCCC(C)(C)C(O)/C=C/[C@H]1CCC(=O)[C@@H]1CCCCCCC(=O)O` (relative stereo) [9-oxo-15-hydroxy-16,16-dimethyl-13-trans-prostenoic acid], in the assay with diastolic blood pressure, the minimal effective dose is under 2 mg/kg.
